Numbered stars: 1 amine (or outer) side, 2 acyl side, 3 side chain; on linkers, the order of the positions; unused ones are H or OH. Bridge positions count the residues as written; N and C are the ends. Square brackets hold non-standard residues; d marks the D form. Ends that are not written are not given here. Peptide text beside a SMILES is read from it. N(6-aminohexyl)Gly = O=C(CN(CCCCCCN[*:3])[*:1])[*:2]; X1 = CC(C)[C@H](NC(=O)CCCCC(=O)[*:1])C(=O)[*:2]
Columns and labels:
trypsin = experiment: Stability to proteolytic cleavage by trypsin; type: in vitro ADME; conditions: trypsin solution; room temperature, TEA buffer pH 7.8, HPLC peak area; read-out: half life (t½) of digestion by trypsin (converted)
Protocol: Method: A mixture containing 0.05 ml of trypsin solution (8% w/v in HCl 0.001M), 0.5 ml TEA buffer pH=7.8 (Geiger, R.; Fritz, H. In Methods of enzymatic analysis; H. U. Bergmeyer, et al. Eds.; Weinheim: Verlag-chemie: 1984; pp 119-129) and 0.2 ml of peptide 22 (BCvir) solution in water (initial concentration of 1.25 mg/ml) was injected to HPLC (C3 column, gradient of 5-60% acetonitrile:TDW containing 0.1% TFA, 35 minutes) immediately after addition of the peptide (t=0). The mixture was incubated at room temperature and samples were injected every 70 min. […] The peak area of the peptide at each time interval was compared to the peak area of the peptide in t=0, as a measure of the relative peptide concentration.

Hut 78 cells = conditions: 0.1, 1, 10 and 100 μg/ml; 1, 2, 4 and 7 days post seeding
Protocol: Method: Hut 78 cells (0.5×10^6/ml) were cultured without or with 0.1, 1, 10 and 100 μg/ml of BCvir. The number of living cells was determined by staining with trypan blue 1, 2, 4 and 7 days post seeding,.

[1] = test system: nuclear import of SV40-NLS-BSA (biotinylated BSA-NLS); experiment: Quantitative ELISA-based nuclear import assay, inhibition of NLS-BSA (SV40-NLS-BSA) uptake in permeabilized Colo-205 cells; type: cell-based; set-up: key to Nuclear uptake of SV40-BSA: +: most of the cells in the field (more than 70-80%) did show nuclear uptake (presence of fluorescent dye within the nuclei); −: most of the cells in the field (more than 70-80%) did show nuclear uptake (their cytoplasm, and not the nuclei, were fluorescently labeled); conditions: for Nuclear uptake of SV40-BSA: in the presence of the free peptide, ELISA-based assay; for Nuclear entry (%) of SV40-NLS-BSA: WGA 0.6 mg/ml or Tat-NLS peptide 1 mg/ml preincubated 30 minutes, entry with cytosolic factors = 100%
Protocol: (§1) Nuclear import was quantitatively determined essentially as described before (Melchior, et al. (1993) J. Cell. Biol. 123 (6). 1649-1659), except that a suspension of Colo-205 cells was used instead of a suspension of HeLa cells and 500 nM biotinylated BSA-NLS were used as a transport substrate. The immunomodule strips were coated with rabbit anti-BSA serum instead of using the IgG fraction. The results given are an average of triplicate determination whose standard deviation never exceeded ±20%.
Nuclear uptake was determined by the ELISA-based assay, except where indicated. IC50 values were determined by using peptides and transport substrates in molar ratios between 500:1 and 0.005:1 respectively. Cysteine residues in all the peptides are not part of the original sequence and were added in order to conjugate them to BSA.
Inhibition of nuclear uptake was estimated by addition of the above listed peptides to a nuclear transport system using SV40-NLS-BSA as a transport substrate.
(§2) Nuclear transport using SV40-NLS-BSA and Tat-NLS-BSA as transport substrates was performed employing the in-vitro ELISA system.

[2] = test system: nuclear import of Tat-NLS-BSA; experiment: In-vitro ELISA nuclear transport with Tat-NLS-BSA as transport substrate; type: cell-based, human; conditions: WGA 0.6 mg/ml or Tat-NLS peptide 1 mg/ml preincubated 30 minutes; entry with cytosolic factors = 100%
Protocol: as §1
The entry of the conjugates into nuclei of permeabilized colo cells was estimated as described above. ATP was depleted, WGA (0.6 mg/ml) and Tat-NLS peptide (1 mg/ml) were preincubated for 30 minutes at room temperature with the permeabilized cells before adding the BSA conjugates.
as §2

[3] = test system: nuclear import of VprN/VprC-BSA conjugate in permeabilized cells; experiment: Nuclear import of Vpr peptide-BSA conjugates in permeabilized cells; type: cell-based
Description: Viral protein r (Vpr), an HIV-1 auxiliary protein which mediates nuclear import of the viral preintegration complex (PIC), contains two regions, N- and C-terminal, which have been proposed to function as a nuclear localization signal (NLS). We have synthesized peptides corresponding to both regions (designated as VprN and VprC), conjugated them to bovine serum albumin (BSA), and tested their ability to mediate nuclear import in permeabilized cells.

[4] = test system: translocation of FL-NLS-BSA into nuclei of digitonin-permeabilized HeLa cells; experiment: Nuclear import estimated by fluorescence microscopy; type: cell-based; set-up: key: +: most of the cells in the field (more than 70-80%) did show nuclear uptake (presence of fluorescent dye within the nuclei); −: most of the cells in the field (more than 70-80%) did show nuclear uptake (their cytoplasm, and not the nuclei, were fluorescently labeled); conditions: in the presence of the free peptide; based on fluorescent microscopy observations (footnote 3)
Description: HeLa cells were cultivated on 10 mm coverslips to subconfluent density and then permeabilized with digitonin as described before (Broder, et al. ibid). Linear peptides bearing the NLS signal of the SV40 large T-antigen were covalently attached to fluorescently labeled (with FITC) BSA molecules (Goldfarb, et al. (1986) Nature 322, 641-644) and translocation of the resulting fluorescently labeled-NLS-BSA molecules (FL-NLS-BSA) into nuclei of digitonin-permeabilized HeLa cells was followed by fluorescent microscopy observations, as described (Broder, et al. ibid).

[5] = SV40-NLS-BSA substrate, peptide:substrate molar ratios between 500:1 and 0.005:1
[6] = purified peptides, inhibition of nuclear import of NLS-BSA

Row | Compound | Nuclear uptake of SV40-BSA [1] | IC50 [1, 5] [µM] | also measured
1 | CC(C)C[C@H](NC(=O)[C@H](CCCCN)NC(=O)CN1CCCCCCNC(=O)[C@H](C(C)C)NC(=O)CCCCC(=O)N[C@@H](CCCCN)C(=O)N[C@@H](CCCCN)C(=O)N[C@@H](CCCCN)C1=O)C(N)=O [BCvir] (KKK[N(6-aminohexyl)Gly]KL-NH2; linker N-4 via X1) |  |  | half-life (trypsin): 7 h; effect on growth rate of uninfected cells (Hut 78 cells): did not affect the growth rate
2 | NCCCC[C@H](NC(=O)CN1CCCCCCNC(=O)CNC(=O)CCCCC(=O)N[C@@H](CCCCN)C(=O)N[C@@H](CCCCN)C(=O)N[C@@H](CCCCN)C1=O)C(N)=O [peptide 19.4] |  |  | half-life (trypsin): 9 h
3 | CGPKNKRKV [SV40 mutant] | + |  | 
4 | CVKRKKKPG (Human Immunodeficiency Virus (HIV-1)) [SV40 reverse] | + |  | 
5 | C^7KRSMGGWSAIRERMRR^22 [Nef NLS] | − | 11 | 
6 | C^35RQARRNRRRRWRERQRQ^51 (N-terminal cysteine; UniProt P04618 35-51, looked up, fragment) [Rev NLS] | − | 347 | 
7 | C^48GRKKRRQRRRAHQN^61 (N-terminal cysteine; UniProt P04608 48-61, looked up, fragment) [Tat NLS] | − | 147 | Nuclear entry (%) of SV40-NLS-BSA [1]: 52%; Nuclear entry (%) of Tat-NLS-BSA [2]: 15.4%
8 | C^88EWRKKRYSTOV^98 [Vif 88-98 K91L] (CEWRLKRYSTQV; not fully specified; printed as C^88EWRKKRYSTOV^98 [Vif 88-98 K91L]) | + |  | 
9 | C^88EWRKKRYSTOV^98 [Vif 88-98] (CEWRKKRYSTQV; not fully specified; printed as C^88EWRKKRYSTOV^98 [Vif 88-98]; UniProt P69723 88-98, looked up, fragment) | − | 62 | 
10 | GKKKYKLKHC [HIV-MA NLS] |  |  | IC50 [1, 6]: 12 µM
11 | PKKKRKVC [SV40 large T-antigen NLS] | − | 0.02 | inhibition of nuclear import of the VprN conjugate [3]: not inhibited; IC50 [1, 6]: 0.001 µM
12 | ^30YVSGKARGWFYRHHY^44 [Vif 30-44] |  |  | Nuclear uptake of SV40-BSA [4]: +
13 | ^41RHHYESPHPRISSEV^55 [Vif 41-55] |  |  | Nuclear uptake of SV40-BSA [4]: +
14 | ^51ISSEVHIPLGDARLV^65 [Vif 51-65] |  |  | Nuclear uptake of SV40-BSA [4]: +
15 | ^78DWHLGQGV^85 (Human Immunodeficiency Virus (HIV-1)) [Vif 78-85] |  |  | Nuclear uptake of SV40-BSA [4]: +
16 | ^85VSIEWRKK^92 (UniProt P69723 85-92, looked up, fragment) [Vif 85-92] | − | 253 | 
17 | ^88EWRKKRYS^95 (Human Immunodeficiency Virus (HIV-1)) [Vif 88-95] | − |  | 
18 | wheat germ agglutinin [WGA] |  |  | inhibition of nuclear import of the VprN conjugate [3]: inhibited; Nuclear entry (%) of SV40-NLS-BSA [1]: 49.8%; Nuclear entry (%) of Tat-NLS-BSA [2]: 53.6%

Source: patent US6664368B1, “Inhibition of nuclear import by backbone cyclic peptide analogs” (priority 1997, dated 2003)
